This is an account of results in US4990450A, “Method of producing endo-α-N-acetylgalactosaminidase from microorganisms” (Seitetsu Kagaku Co., Ltd., priority 1987, dated 1991).

The test system of data set [1] is endo-α-GalNAcase. The experiment in a line: Effects of inhibitors (additives) on enzyme activity. The data set is classed as biochemical, Alcaligenes sp. F-1906. How it is done:
(§1) The activity of this enzyme can be measured with asialofetuin as a substrate. The enzyme reaction is carried out in citrate buffer, pH 4.5, at 37° C., and then stopped by adding a borate buffer, pH 9.1, to this reaction mixture. The Gal β1→3GalNAc produced is measured by the method of Reissig. One unit of enzyme activity is defined as the amount of enzyme that releases 1 μmol of Gal β1,→3GalNAc in one minute.
The enzyme was tested for the effects of various kinds of substances.

The nature of data set [2]: pH and temperature stability of the enzyme. The data set is classed as physicochemical. How it is done: (§2) The optimum pH of the enzyme reaction is 4.5-5.0 The enzyme is stable in the pH range of 4.2-6.5. thin this pH range, the activity remains about 90% or more after the enzyme is left at 1 hour at 30° C.
(§3) The optimum temperature for the enzyme reaction is 40-45° C. The temperature at which the enzyme is stable for 10 minutes when kept in a phosphate buffer, pH 6.0, is 30° C. or less. At 40° C., about 70% of the activity remains after such treatment.

Another data set relates to asialofetuin. The experiment in a line: Enzyme activity with asialofetuin as substrate (optimum pH, optimum temperature, activity of purified enzyme). The data set is classed as biochemical. As for the experimental part: as §1, §2, §3
Commercially available mucin from pig gastric mucosa was mixed with 1 N sulfuric acid and left for 1 hour at 80° C. for hydrolysis, which removed the sialic acid moiety of the mucin. The hydrolysate was added to the medium at the concentration of 1%. Five hundred milliliters of the medium was put into each of 40 flasks with a capacity of 2 liters, which were sterilized and were inoculated with 5 ml of pre-cultured Alcaligenes sp. F-1906. The flasks were cultured at 28° C. for 3 days. After the culture, the bacterial cells were removed by centrifugation, and the supernatant of the culture was obtained. Ammonium sulfate was added to this supernatant at 0-5° C. and the fractions that precipitated at the saturation of 40-80% ammonium sulfate were collected. This precipitate was dissolved in 0.01 M phosphate buffer, pH 6.0, and then dialyzed overnight against the same buffer. The dialysate was put on a DEAE-Sephadex® A-50 column (5.0×32.5 cm) equilibrated with 0.01 M phosphate buffer. After the column was washed with the same buffer containing 0.2 M NaCl, the enzyme was eluted with the same buffer containing 0.4 M NaCl. […]

Data set [3] concerns endo-α-GalNAcase. Nature of the data set: Substrate specificity of the enzyme. In kind it is biochemical, Alcaligenes sp. F-1906.
Setting [4] is: additive concentration 2.0 mM, no additive = 100.
[5] abbreviates: additive concentration 2.4 mM, no additive = 100.
Setting [6] is: additive concentration 2.5 mM, no additive = 100.

Read-outs that look alike come from different tables or passages of the source.

On to `OC[C@H]1OC(O)[C@H](O)[C@@H](O)[C@@H]1O` (stereo partly drawn) [Glucose], for which the Relative activity with endo-α-GalNAcase [1] (setting [4]) was determined as 109%.
On to “endo-α-N-acetylgalactosaminidase [endo-α-GalNAcase]”, for which the Activity remaining entry in data set [2] (40° C., 10 minutes in phosphate buffer, pH 6.0) is on record as “about 70%”. The “Temperature at which the enzyme is stable” value in data set [2] (10 minutes in phosphate buffer, pH 6.0) is not above 30 °C. Also, the “pH range in which the enzyme is stable” value in data set [2] (1 hour at 30° C.) is 4.2-6.5. In data set [2] (within pH 4.2-6.5, 1 hour at 30° C.), this molecule displayed an Activity remaining not below 90%. Besides, in the data set with asialofetuin, the “Optimum pH of the enzyme reaction” value is 4.5-5.0 and the “Optimum temperature for the enzyme reaction” value was 40-45 °C. In addition, the “relative activity of purified enzyme” value with asialofetuin (purified form, Example 1) is 2.2 units/mg.
Consider `CCN1C(=O)C=CC1=O` [N-Ethylmaleimide], for which, in the data set with endo-α-GalNAcase [1] (Table 2), the “Effect on enzyme activity (in words)” value is on record as “almost unaffected”. Also, in the data set with endo-α-GalNAcase [1] (setting [5]), the Relative activity worked out at 105%.
Consider `N[C@H]1C(O)O[C@H](CO)[C@H](O)[C@@H]1O` (stereo partly drawn) [Galactosamine], for which the Relative activity in the data set on endo-α-GalNAcase [1] (setting [4]) came to 106%.
For `O=C(O)CN(CCN(CC(=O)O)CC(=O)O)CC(=O)O` [Ethylenediamine-tetraacetic acid], the Relative activity with endo-α-GalNAcase [1] (setting [6]) is recorded as 97%.
For the molecule `[Mn+2]` [Mn], in the data set with endo-α-GalNAcase [1] (Table 2), the “Inhibition of the enzyme” value is on record as 26-35%. The Relative activity in the data set with endo-α-GalNAcase [1] (setting [6]) was 65%.
On to `OC[C@H]1OC(O)[C@H](O)[C@@H](O)[C@H]1O` (stereo partly drawn) [Galactose], for which the Relative activity with endo-α-GalNAcase [1] (setting [4]) was 107%.
On the same count and under the same terms, under `N[C@H]1C(O)O[C@H](CO)[C@@H](O)[C@@H]1O` (stereo partly drawn) [Glucosamine] stands 111%.
As to `O=C(O)CI` [Iodoacetic acid], in the data set on endo-α-GalNAcase [1], the “Effect on enzyme activity (in words)” value is “almost unaffected”. Also, the Relative activity in the data set on endo-α-GalNAcase [1] (endo-alpha-galnacase, pH 4.5, 2400 µM) came out at 109%.
On to `N[C@@H](CS)C(=O)O` [Cysteine], for which the “Inhibition of the enzyme” value with endo-α-GalNAcase [1] (Table 2) was “approximately 30%”. The Relative activity in the data set with endo-α-GalNAcase [1] (setting [5]) is reported as 68%.
In the case of `[Ca+2]` [Ca], the Relative activity with endo-α-GalNAcase [1] (setting [6]) is listed as 109%.
On the same count and under the same terms, under `[Zn+2]` [Zn] stands 88%.
As to `OCCS` [Mercaptoethanol], the “Effect on enzyme activity (in words)” value in the data set on endo-α-GalNAcase [1] (Table 2) is “almost unaffected”. Further, the Relative activity in the data set on endo-α-GalNAcase [1] (setting [5]) was determined as 97%.
For `O=C(O)c1cc[c]([Hg][Cl])cc1` [p-Chloromercuribenzoic acid] the same measures were “almost unaffected” and 99%.
Turning to `[Cu+2]` [Cu], in the data set on endo-α-GalNAcase [1] (Table 2), the “Inhibition of the enzyme” value is reported as 26-35%. For the same molecule, the Relative activity with endo-α-GalNAcase [1] (setting [6]) worked out at 74%.
In the case of “asialofetuin: glycoprotein with O-glycosidic Gal β1→3GalNAc α→Ser (or Thr) sugar chains, used as substrate”, the “Use as substrate of the enzyme” value with endo-α-GalNAcase [3] is reported as “can be used as substrates”.
Consider `CC(=O)N[C@H]1[C@H]([C@H](O)[C@H](O)CO)OC(O)(C(=O)O)C[C@@H]1O` (stereo partly drawn) [Sialic acid], for which the Relative activity in the data set on endo-α-GalNAcase [1] (additive concentration 1.0 mM, no additive = 100) worked out at 106%.
